Assay results taken from patent publication US8067423B2, “Polymorphs of dasatinib isopropyl alcohol and process for preparation thereof” (Teva Pharmaceutical Industries Ltd., priority 2007, dated 2011).

How the values were obtained:
Type in all cases: physicochemical
[1] = Heating of form A3 on oil bath up to 208° C., MS check; conditions: 200 mg heated gradually up to 208° C. at final 0.7 Pa for about 15 min
Description: Dasatinib (200 mg, form A3) was heated on oil bath gradually up to 208° C. at final 0.7 Pa for about 15 min.

[2] = Blend with excipients pressed to a tablet, analyzed by PXRD; conditions: 70 mg form A3 with lactose monohydrate, magnesium stearate, microcrystalline celulose, hydroxypropylmethyl celulose
Description: (§1) XRD diffraction was performed on X-Ray powder diffractometer: Philips X'pert Pro powder diffractometer, CuKα radiation, λ=1.5418 Å. X'Celerator detector active length (2 theta)=2.122°, laboratory temperature 22-25° C. Zero background sample holders. Prior to analysis the samples were gently ground by means of mortar and pestle in order to obtain a fine powder. The ground sample was adjusted into a cavity of the sample holder and the surface of the sample was smoothed by means of a cover glass.

[3] = Slurry of form N-6 in methanol: conversion to form B, solid phase analyzed by PXRD; conditions: for content of form B in the recovered solid (PXRD): form N-6 75 mg slurried in 1 ml methanol, filtered, dried on air
Description: as §1
Dasatinib (form N-6, 75 mg) was put into vial and 1 ml of methanol was added. The slurry was then left at 0° C. for 2 days. The solid phase was filtered off and left to dry on air.
Dasatinib (form N-6, 75 mg) was put into vial and 1 ml of methanol was added. The slurry was then left at 20° C. for 2 days respectively. The solid phase was filtered off and left to dry on air.

Cc1nc(Nc2ncc(C(=O)Nc3c(C)cccc3Cl)s2)cc(N2CCN(CCO)CC2)n1 [form A3, dasatinib]
chemical change on heating (MS) [1]: without any chemical change
sublimation on heating [1]: None sublimation was observed
crystalline form found in the pressed tablet (PXRD) [2]: belonging to form A3

Cc1nc(Nc2ncc(C(=O)Nc3c(C)cccc3Cl)s2)cc(N2CCN(CCO)CC2)n1 [form B, dasatinib]
stability of the crystalline form ([3]; at a temperature of about 20° C. and below): relatively stable

Cc1nc(Nc2ncc(C(=O)Nc3c(C)cccc3Cl)s2)cc(N2CCN(CCO)CC2)n1 [form N-6, dasatinib]
content of form B in the recovered solid (PXRD) ([3]; left at 0° C. for 2 days): about 10%
content of form B in the recovered solid (PXRD) ([3]; left at 20° C. for 2 days): about 1%
polymorphic conversion on slurrying ([3]; slurried at about 20° C. to about 0° C. for 2 days): converted to form B
